The target in one data set is Bcl-2 protein (Homo sapiens (Human), UniProt P10415). In words: TR-FRET binding assay, Bcl-2. The conditions noted are these: F-Bak peptide probe, GST-Bcl-2.
Data set [1] can be described thus: Bioavailability study: pharmacokinetics after single intravenous or oral dose in mouse. Format: in vivo. The settings on record: for half-life: CD-1, mouse, plasma, 1 mg/kg. As to the method: Studies were conducted to evaluate the pharmacokinetic profiles of Example 25 herein and Example 2 in WO 2019/040550 after single intravenous or oral dose in mouse. CD-1 mice (male) were obtained from Charles River Laboratories (Wilmington, MA).
The pharmacokinetics of Example 25 herein and Example 2 in WO 2019/040550 were evaluated following single 1 mg/kg intravenous or oral doses in mouse. Example 25 herein and Example 2 in WO 2019/040550 were prepared as a solution in DMSO: Tween 80: PEG-400: Dextrose 5% in Water (5:5:20:70, v/v) for the IV and oral dose mouse studies. The intravenous dose was administered as a slow bolus to the penile vein under isoflurane anesthesia. The oral doses were administrated by gavage. Serial blood samples were obtained […], 0.25, 0.5, 1.0, 4, 6, 9, 12, 24, 32 and 48 hours post dosing and […]. Plasma was separated by centrifugation and stored frozen (<−15° C.) until analysis.
HPLC-MS/MS bioanalytical methods were utilized for the quantitation of Example 25 herein and Example 2 in WO 2019/040550 concentration in plasma. The analytical methods used protein precipitation to extract compound from plasma. All samples were combined with a minimum two volume equivalents of organic solvent containing internal standard, vortexed and then centrifuged to pellet the proteins. Supernatants were used for subsequent analysis by liquid chromatography-tandem mass spectrometry (LC-MS/MS). Studies involving quantitative analysis employed spiked standards in plasma that were processed simultaneously with the samples.
Analytes were separated using reverse phase chromatography on a C8 or C18 column prior to analysis on an API5500™ (or higher) mass spectrometer with a Turbo-Ion Spray source. Peak areas were determined using Sciex Analyst™ 1.6 (or higher) software or Sound Analytics DiscoveryQuant™ 2.0 (or higher) software. Actual concentrations (when required) were calculated by regression analysis of the peak area ratio (parent/internal standard) of the spiked standards versus concentrations.
Peak plasma concentrations (Cmax) and the time to peak plasma concentration (Tmax) were determined directly from the plasma concentration data for each animal. The compound plasma concentration data were submitted to multi-exponential curve fitting using WinNonlin software. The area under the plasma concentration-time curve from 0 to t hours after dosing (AUC0-t, t=time of the last measurable plasma concentration) was calculated using the linear trapezoidal rule. The residual area extrapolated to infinity, determined as the final measured plasma concentration (Ct) divided by the terminal plasma elimination rate constant (β), was added to the AUC0-t to produce the total area under the curve (AUC0-∞). The apparent total plasma clearance (CLp) was calculated by dividing the administered dose by the AUC0-∞. Half-life (t1/2) was determined with the following calculation: t1/2=ln (2)/elimination rate constant. The initial volume of distribution (Vc) was calculated as the dose divided by the extrapolated concentration at time=0 (C0). The volume of distribution at steady state, Vss, was estimated as a product of the total plasma clearance (CLp) and the mean residence time (MRT); the terminal-phase volume of distribution, Vβ, was derived from the total plasma clearance value (CLp) divided by the terminal plasma elimination rate constant (β). Oral bioavailability (F) was calculated as the dose-normalized AUC0-∞ (AUC0-∞/D) from the oral dose divided by the corresponding dose normalized AUC0-∞ from intravenous dosing.

In another data set the target is Bcl-xL protein (Homo sapiens (Human), UniProt Q07817). In words: TR-FRET binding assay, Bcl-xL. The settings on record: F-Bak peptide probe.
The subject of the next data set is RS4;11 cells. In words: Cell viability assay (CellTiter-Glo) in RS4;11 cells. It is filed as cell-based. The conditions noted are these: 24 hours, 10% Human Serum. The method in brief: (§1)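 3000 cells/well (0.1×10^6/mL) were treated with compound for 24 hours in 5% CO2. Viability read by CellTiter-Glo luminescence; Molt-4 (T-ALL) served as the counter screen to RS4;11 (ALL).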
For orientation: In ATP-based viability assays light output follows the ATP content of the culture.

The test system of the next data set is Molt-4 cells. In words: Cell viability counter screen (CellTiter-Glo) in Molt-4 cells. It is filed as cell-based. The settings on record: 24 hours, 10% Human Serum. The method in brief: as §1
Background: A counterscreen serves to expose hits that act by an unwanted route or on another target.

The mark [2] stands for this setting: IV (1 mg/kg), mouse plasma, individual mouse.
Setting [3] is: PO (1 mg/kg), mouse plasma, individual mouse.

A word on the pKi: it is −log10 of the Ki, conventionally taken in molar units. As usually defined, the AUC is concentration integrated over time. Broadly, the MRT is the average time that molecules of a dose stay in the body. The term Cmax denotes the peak of the concentration-time curve. By half-life is commonly meant the time needed for the level to fall by half in the phase considered. A higher half-life goes with slow loss. The Tmax is the time from dosing to the highest level. As usually defined, the pEC50 is the EC50 on a negative log10 scale, so that one unit is a factor of ten.

pEC50, pKi: −log10 of the molar value. Values joined by “and” are separate entries in the source; they are usually repeats but may differ in a detail not shown here. Identical values can stand only once. Like-named read-outs stand apart in the source and are kept apart here.

Sequence of Bcl-xL protein (Q07817 other isoform, or with tags, fused parts or gaps): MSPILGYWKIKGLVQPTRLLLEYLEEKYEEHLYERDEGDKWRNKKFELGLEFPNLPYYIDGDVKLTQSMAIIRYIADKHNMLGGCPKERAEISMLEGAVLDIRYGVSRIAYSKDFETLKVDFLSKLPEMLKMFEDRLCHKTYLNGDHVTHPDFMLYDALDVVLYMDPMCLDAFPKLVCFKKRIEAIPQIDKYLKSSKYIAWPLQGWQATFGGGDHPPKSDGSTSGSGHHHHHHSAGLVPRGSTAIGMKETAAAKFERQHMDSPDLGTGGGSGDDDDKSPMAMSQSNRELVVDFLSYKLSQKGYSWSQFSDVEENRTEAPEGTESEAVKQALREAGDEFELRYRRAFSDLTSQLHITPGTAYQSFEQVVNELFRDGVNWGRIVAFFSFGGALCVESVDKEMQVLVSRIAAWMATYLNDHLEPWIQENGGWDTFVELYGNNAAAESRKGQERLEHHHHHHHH
Sequence of Bcl-2 protein (P10415 other isoform, or with tags, fused parts or gaps): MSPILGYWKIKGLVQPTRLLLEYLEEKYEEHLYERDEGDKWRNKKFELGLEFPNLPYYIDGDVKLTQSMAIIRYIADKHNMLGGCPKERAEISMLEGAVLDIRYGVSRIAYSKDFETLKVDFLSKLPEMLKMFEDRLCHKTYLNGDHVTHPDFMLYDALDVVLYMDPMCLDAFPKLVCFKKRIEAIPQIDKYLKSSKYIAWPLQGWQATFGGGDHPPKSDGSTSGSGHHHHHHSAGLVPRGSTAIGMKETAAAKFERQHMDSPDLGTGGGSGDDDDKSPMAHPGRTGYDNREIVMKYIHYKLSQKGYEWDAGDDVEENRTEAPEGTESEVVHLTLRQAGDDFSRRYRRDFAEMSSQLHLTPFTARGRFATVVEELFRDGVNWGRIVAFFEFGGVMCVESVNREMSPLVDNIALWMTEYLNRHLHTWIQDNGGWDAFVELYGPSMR

With `CO[C@@H]1CC[C@@H](CNc2ccc(S(=O)(=O)NC(=O)c3ccc(N4CCN5CC6=C(c7ccc(Cl)cc7)CC(C)(C)C[C@H]6OCCCOC[C@@H]5C4)cc3N3CCCOc4nc5[nH]ccc5cc43)cc2[N+](=O)[O-])OC1` [Example 25, 4-((4aS,10aR)-14-(4-chlorophenyl)-12,12-dimethyl-1,2,4a,5,8,9,10a,11,13,15-decahydro-7H,12H-benzo[f]pyrazino[2,1-c][1,8]dioxa[4]azacycloundecin-3(4H)-yl)-2-(3,4-dihydro-2H-pyrrolo[3′,2′:5,6]pyrido[2,3-b][1,4]oxazepin-1(7H)-yl)-N-((4-((((2S,5R)-5-methoxytetrahydro-2H-pyran-2-yl)methyl)amino)-3-nitrophenyl)sulfonyl)benzamide], at Bcl-2 protein, the pKi is 9.56. Further, in data set [1] (setting [2]), the AUC is 11200 ng·h/mL and 12900 ng·h/mL; the C0 was 5020 ng/mL and 3470 ng/mL; the CLP was determined as 1.48 mL/min/kg; the MRT was 9.8 h. In data set [1] (setting [2]), the VSS was 0.93 L/kg and 0.76 L/kg; the Vβ is 0.95 L/kg and 1.0 L/kg and 0.90 L/kg; the t1/2 is 7.9 h and 8.1 h. The same compound came in with a Vβ in data set [1] (IV (1 mg/kg), mouse plasma, mean) of 0.96 L/kg. In data set [1] (setting [3]), the AUC is 4330 ng·h/mL and 4490 ng·h/mL; the Cmax was 279 ng/mL and 274 ng/mL. The half-life in data set [1] (male, iv, IV (1 mg/kg), individual mouse) is 10 h. In data set [1] (male, po, PO (1 mg/kg), harmonic mean), this compound gave a half-life of 8.7 h. In data set [1] (male, po, PO (1 mg/kg), individual mouse), the half-life was 8.7 h. The mean residence time (MRT) in data set [1] (male, CD-1, IV (1 mg/kg), mouse plasma, individual mouse, read-out: MRT) amounted to 10 h. The clearance in data set [1] (male, CD-1, IV (1 mg/kg), mouse plasma, mean, read-out: CLP (converted)) was 1.28 mL/min/kg. For the same compound, the Tmax in data set [1] (male, CD-1, PO (1 mg/kg), mouse plasma, individual mouse) came to 4 h. In addition, the pKi on Bcl-xL protein is 7.87.

Take `CO[C@H]1CC[C@H](COc2ccc(S(=O)(=O)NC(=O)c3ccc(N4CCN5CC6=C(c7ccc(Cl)cc7)CC(C)(C)C[C@H]6OCCCOC[C@@H]5C4)cc3N3CCCOc4nc5[nH]ccc5cc43)cc2[N+](=O)[O-])OC1` [Example 33, 4-((4aS,10aR)-14-(4-chlorophenyl)-12,12-dimethyl-1,2,4a,5,8,9,10a,11,13,15-decahydro-7H,12H-benzo[f]pyrazino[2,1-c][1,8]dioxa[4]azacycloundecin-3(4H)-yl)-2-(3,4-dihydro-2H-pyrrolo[3′,2′:5,6]pyrido[2,3-b][1,4]oxazepin-1(7H)-yl)-N-((4-(((2R,5S)-5-methoxytetrahydro-2H-pyran-2-yl)methoxy)-3-nitrophenyl)sulfonyl)benzamide]: the pKi at Bcl-2 protein was 9.57; on Bcl-xL protein, 7.54. Moreover, the pEC50 is 8.46 in the data set with RS4;11 cells and 5.22 in the data set on Molt-4 cells.

As for `CC1(C)CC(c2ccc(Cl)cc2)=C2CN3CCN(c4ccc(C(=O)NS(=O)(=O)c5ccc(NC[C@H]6CC[C@@](C)(O)CC6)c([N+](=O)[O-])c5)c(N5CCCOc6nc7[nH]ccc7cc65)c4)C[C@H]3COCCCO[C@@H]2C1` [Example 36, 4-((4aS,10aR)-14-(4-chlorophenyl)-12,12-dimethyl-1,2,4a,5,8,9,10a,11,13,15-decahydro-7H,12H-benzo[f]pyrazino[2,1-c][1,8]dioxa[4]azacycloundecin-3(4H)-yl)-2-(3,4-dihydro-2H-pyrrolo[3′,2′:5,6]pyrido[2,3-b][1,4]oxazepin-1(7H)-yl)-N-((4-((((1s,4s)-4-hydroxy-4-methylcyclohexyl)methyl)amino)-3-nitrophenyl)sulfonyl)benzamide], the pKi at Bcl-2 protein is 10.22; at Bcl-xL protein it was 7.95. Also, the figures for the pEC50 in the data set on RS4;11 cells and with Molt-4 cells were 8.83 and 6.93, respectively.

As for `CC1(C)CC(c2ccc(Cl)cc2)=C2CN3CCN(c4ccc(C(=O)NS(=O)(=O)c5ccc(NC[C@H]6CC[C@H](N7CCOCC7)CO6)c([N+](=O)[O-])c5)c(N5CCCOc6nc7[nH]ccc7cc65)c4)C[C@H]3COCCCO[C@@H]2C1` [Example 37, 4-((4aS,10aR)-14-(4-chlorophenyl)-12,12-dimethyl-1,2,4a,5,8,9,10a,11,13,15-decahydro-7H,12H-benzo[f]pyrazino[2,1-c][1,8]dioxa[4]azacycloundecin-3(4H)-yl)-2-(3,4-dihydro-2H-pyrrolo[3′,2′:5,6]pyrido[2,3-b][1,4]oxazepin-1(7H)-yl)-N-((4-((((2R,5S)-5-morpholinotetrahydro-2H-pyran-2-yl)methyl)amino)-3-nitrophenyl)sulfonyl)benzamide], the pKi is 9.96 on Bcl-2 protein and 8.34 at Bcl-xL protein. The figures for the pEC50 in the data set with RS4;11 cells and with Molt-4 cells were 8.98 and 5.84, respectively.

As to `CC1(C)CC(c2ccc(Cl)cc2)=C2CN3CCN(c4ccc(C(=O)NS(=O)(=O)c5ccc(NCC6(F)CCN(C7COC7)CC6)c([N+](=O)[O-])c5)c(N5CCCOc6nc7[nH]ccc7cc65)c4)C[C@H]3COCCCO[C@@H]2C1` [Example 39, 4-((4aS,10aR)-14-(4-chlorophenyl)-12,12-dimethyl-1,2,4a,5,8,9,10a,11,13,15-decahydro-7H,12H-benzo[f]pyrazino[2,1-c][1,8]dioxa[4]azacycloundecin-3(4H)-yl)-2-(3,4-dihydro-2H-pyrrolo[3′,2′:5,6]pyrido[2,3-b][1,4]oxazepin-1(7H)-yl)-N-((4-(((4-fluoro-1-(oxetan-3-yl)piperidin-4-yl)methyl)amino)-3-nitrophenyl)sulfonyl)benzamide], the pKi was 9.71 on Bcl-2 protein and 8.28 on Bcl-xL protein. For the same compound, the figures for the pEC50 in the data set on RS4;11 cells and with Molt-4 cells were 8.78 and 6.34, respectively.

With `CO[C@H]1C[C@H](CNc2ccc(S(=O)(=O)NC(=O)c3ccc(N4CCN5CC6=C(c7ccc(Cl)cc7)CC(C)(C)C[C@H]6OCCCOC[C@@H]5C4)cc3N3CCCOc4nc5[nH]ccc5cc43)cc2[N+](=O)[O-])C1` [Example 41, 4-((4aS,10aR)-14-(4-chlorophenyl)-12,12-dimethyl-1,2,4a,5,8,9,10a,11,13,15-decahydro-7H,12H-benzo[f]pyrazino[2,1-c][1,8]dioxa[4]azacycloundecin-3(4H)-yl)-2-(3,4-dihydro-2H-pyrrolo[3′,2′:5,6]pyrido[2,3-b][1,4]oxazepin-1(7H)-yl)-N-((4-((((1r,3r)-3-methoxycyclobutyl)methyl)amino)-3-nitrophenyl)sulfonyl)benzamide], the pKi was 9.65 at Bcl-2 protein and 7.60 on Bcl-xL protein. The pEC50 in the data set with RS4;11 cells was 8.41; in the data set on Molt-4 cells, less than 5.00.

As to `CC1(C)CC(c2ccc(Cl)cc2)=C2CN3CCN(c4ccc(C(=O)NS(=O)(=O)c5ccc(OCC6CCOCC6)c([N+](=O)[O-])c5)c(N5CCCOc6nc7[nH]ccc7cc65)c4)C[C@H]3COCCCO[C@@H]2C1` [Example 46, 4-((4aS,10aR)-14-(4-chlorophenyl)-12,12-dimethyl-1,2,4a,5,8,9,10a,11,13,15-decahydro-7H,12H-benzo[f]pyrazino[2,1-c][1,8]dioxa[4]azacycloundecin-3(4H)-yl)-2-(3,4-dihydro-2H-pyrrolo[3′,2′:5,6]pyrido[2,3-b][1,4]oxazepin-1(7H)-yl)-N-((3-nitro-4-((tetrahydro-2H-pyran-4-yl)methoxy)phenyl)sulfonyl)benzamide], the results for the pKi at Bcl-2 protein and at Bcl-xL protein were 9.69 and 7.66, respectively. Also, the values for the pEC50 with RS4;11 cells and with Molt-4 cells were 8.03 and less than 5.00, respectively.

The values above are taken from patent US20250066388A1, “1,3,4,7-TETRAHYDRO-2H-PYRROLO[3',2':5,6]PYRIDO[2,3-B][1,4]OXAZEPINE BCL-2 INHIBITORS” (AbbVie Inc., priority 2022, published 2025).
